Reference: patent publication US20230114728A1 (Venatorx Pharmaceuticals, Inc., priority 2019, published 2023)
Converted amounts (≈) assume the structure as drawn.

Key:
[1] = system: E. coli AG100A; assay: Broth microdilution MIC in CAMHB; type: cell-based; settings: Escherichia coli, read-out: Minimum Inhibitory Concentration, E. coli AG100A
How it was run: (§1)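 Hyper-permeable or efflux-deficient strains serve to probe outer-membrane penetration. Growth inhibition is scored visually after 16-20 h at 37° C in CAMHB, starting from 2-8×10^5 CFU/mL.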

[2] = system: K. pneumoniae 848844 producing SHV-11 and KPC-2; assay: Broth microdilution MIC in CAMHB; type: cell-based; settings: Klebsiella pneumoniae, read-out: Minimum Inhibitory Concentration, K. pneumoniae 848844
How it was run: as §1

[3] = system: P. aeruginosa (ΔmexAB-oprM); assay: Broth microdilution MIC in CAMHB; type: cell-based; settings: Pseudomonas aeruginosa, read-out: Minimum Inhibitory Concentration, P. aeruginosa ΔmexAB-OprM
How it was run: as §1

[4] = system: P. aeruginosa ATCC 27853; assay: Broth microdilution MIC in CAMHB; type: cell-based; settings: Pseudomonas aeruginosa, ATCC27853; MHB; read-out: Minimum Inhibitory Concentration, P. aeruginosa ATCC 27853
How it was run: as §1

[5] = system: K. pneumoniae UMM producing SHV-5 and KPC-2; assay: Broth microdilution MIC in CAMHB; type: cell-based; settings: Klebsiella pneumoniae, read-out: Minimum Inhibitory Concentration, K. pneumoniae UMM
How it was run: as §1

[6] = system: P. aeruginosa ATCC 35151; assay: Broth microdilution MIC in CAMHB; type: cell-based; settings: Pseudomonas aeruginosa, ATCC35151; MHB; hyper-permeable strain; read-out: Minimum Inhibitory Concentration, P. aeruginosa ATCC 35151
How it was run: as §1

[7] = system: E. coli ATCC 25922; assay: Broth microdilution MIC in CAMHB; type: cell-based; settings: Escherichia coli, ATCC25922; E. coli ATCC 25922; MHB; read-out: Minimum Inhibitory Concentration, E. coli 25922
How it was run: as §1

[8] = target: T1, P. aeruginosa PBP3 (Pseudomonas aeruginosa, UniProt G3XD46); assay: Bocillin-FL fluorescence polarization competition binding assay, P. aeruginosa PBP3; settings: fluorescence polarization competition binding assay using Bocillin-FL
T1 construct: made in house
T1 sequence (G3XD46 whole entry): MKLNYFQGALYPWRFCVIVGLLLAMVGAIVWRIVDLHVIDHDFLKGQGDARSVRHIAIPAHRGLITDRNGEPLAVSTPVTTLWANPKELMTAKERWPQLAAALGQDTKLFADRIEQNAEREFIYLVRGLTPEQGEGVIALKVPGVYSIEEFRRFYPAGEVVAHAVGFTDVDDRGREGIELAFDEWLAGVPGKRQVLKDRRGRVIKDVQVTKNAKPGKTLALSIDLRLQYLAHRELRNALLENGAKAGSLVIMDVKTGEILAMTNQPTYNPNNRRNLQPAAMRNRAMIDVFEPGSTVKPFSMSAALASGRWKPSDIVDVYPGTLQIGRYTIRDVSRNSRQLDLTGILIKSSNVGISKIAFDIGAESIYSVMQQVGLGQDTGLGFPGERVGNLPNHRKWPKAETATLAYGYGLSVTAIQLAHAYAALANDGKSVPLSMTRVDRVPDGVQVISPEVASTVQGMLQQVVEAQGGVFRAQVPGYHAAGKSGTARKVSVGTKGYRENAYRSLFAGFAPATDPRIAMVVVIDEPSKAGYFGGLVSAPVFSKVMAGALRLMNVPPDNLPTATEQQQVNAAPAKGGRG
How it was run: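 Inhibitor competition with Bocillin-FL for P. aeruginosa PBP3 was followed by fluorescence polarization on a Cytation3 (BioTek) reader, using g-factor 0.96, 490 nm excitation and 520 nm emission. The enzyme was at 0.75 μM and the probe at 0.1 μM in Hepes/NaCl/glycerol buffer, 80 μl per well. FP was recorded immediately after probe addition for up to 60 minutes. Potency was expressed as EC50, the concentration that reduces bound probe by 50%.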

SMILES: CCN1CCN(C(=O)NC(C(=O)N[C@H]2Cc3cccc(C(=O)O)c3OB2O)c2ccc(O)c(F)c2F)C(=O)C1=O (stereo partly drawn) [Example 173]
- MIC [1]: 2 to 4 µg/mL (≈ 3.57 to 7.14 µM)
- MIC [2]: > 128 µg/mL
- MIC [3]: 2 to 4 µg/mL (≈ 3.57 to 7.14 µM)
- MIC [4]: > 128 µg/mL
- MIC [5]: 32 to 64 µg/mL (≈ 57.1 to 114 µM)
- MIC [6]: 0.5 to 1 µg/mL (≈ 0.892 to 1.78 µM)
- MIC [7]: 8 to 16 µg/mL (≈ 14.3 to 28.6 µM)
- P. aeruginosa PBP3 Potency [8]: D (D represents a potency <10 μM)

SMILES: NCCN1CCN(C(=O)NC(C(=O)N[C@H]2Cc3cccc(C(=O)O)c3OB2O)c2c(F)c(F)c(O)c(F)c2F)C(=O)C1=O (stereo partly drawn) [Example 174, (3R)-3-(2-(4-(2-aminoethyl)-2,3-dioxopiperazine-1-carboxamido)-2-(2,3,5,6-tetrafluoro-4-hydroxyphenyl)acetamido)-2-hydroxy-3,4-dihydro-2H-benzo[e][1,2]oxaborinine-8-carboxylic acid]
- MIC [1]: 2 to 4 µg/mL (≈ 3.27 to 6.54 µM)
- MIC [2]: > 128 µg/mL
- MIC [3]: 8 to 16 µg/mL (≈ 13.1 to 26.2 µM)
- MIC [4]: > 128 µg/mL
- MIC [5]: 32 to 64 µg/mL (≈ 52.4 to 105 µM)
- MIC [6]: 0.5 to 1 µg/mL (≈ 0.818 to 1.64 µM)
- MIC [7]: 32 to 64 µg/mL (≈ 52.4 to 105 µM)
- P. aeruginosa PBP3 Potency [8]: D (D represents a potency <10 μM)

SMILES: CCN1CCN(C(=O)NC(C(=O)N[C@H]2Cc3cccc(C(=O)O)c3OB2O)c2c(F)c(F)c(O)c(F)c2F)C(=O)C1=O (stereo partly drawn) [Example 175, (3R)-3-(2-(4-ethyl-2,3-dioxopiperazine-1-carboxamido)-2-(2,3,5,6-tetrafluoro-4-hydroxyphenyl)acetamido)-2-hydroxy-3,4-dihydro-2H-benzo[e][1,2]oxaborinine-8-carboxylic acid]
- MIC [1]: 2 to 4 µg/mL (≈ 3.35 to 6.71 µM)
- MIC [2]: > 128 µg/mL
- MIC [3]: 8 to 16 µg/mL (≈ 13.4 to 26.8 µM)
- MIC [4]: > 128 µg/mL
- MIC [5]: 32 to 64 µg/mL (≈ 53.7 to 107 µM)
- MIC [6]: 0.5 to 1 µg/mL (≈ 0.839 to 1.68 µM)
- MIC [7]: 32 to 64 µg/mL (≈ 53.7 to 107 µM)
- P. aeruginosa PBP3 Potency [8]: D (D represents a potency <10 μM)

SMILES: CCN1CCN(C(=O)NC(C(=O)N[C@H]2Cc3cccc(C(=O)O)c3OB2O)c2c(F)cc(NS(N)(=O)=O)cc2F)C(=O)C1=O (stereo partly drawn) [Example 176, (3R)-3-(2-(2,6-difluoro-4-(sulfamoylamino)phenyl)-2-(4-ethyl-2,3-dioxopiperazine-1-carboxamido)acetamido)-2-hydroxy-3,4-dihydro-2H-benzo[e][1,2]oxaborinine-8-carboxylic acid]
- MIC [1]: 2 to 4 µg/mL (≈ 3.13 to 6.27 µM)
- MIC [2]: > 128 µg/mL
- MIC [3]: 32 to 64 µg/mL (≈ 50.1 to 100 µM)
- MIC [4]: > 128 µg/mL
- MIC [5]: 32 to 64 µg/mL (≈ 50.1 to 100 µM)
- MIC [6]: 2 to 4 µg/mL (≈ 3.13 to 6.27 µM)
- MIC [7]: 32 to 64 µg/mL (≈ 50.1 to 100 µM)
- P. aeruginosa PBP3 Potency [8]: D (D represents a potency <10 μM)

SMILES: NCCN1CCN(C(=O)NC(C(=O)N[C@H]2Cc3cccc(C(=O)O)c3OB2O)c2c(F)cc(NS(N)(=O)=O)cc2F)C(=O)C1=O (stereo partly drawn) [Example 177, (3R)-3-(2-(4-(2-aminoethyl)-2,3-dioxopiperazine-1-carboxamido)-2-(2,6-difluoro-4-(sulfamoylamino)phenyl)acetamido)-2-hydroxy-3,4-dihydro-2H-benzo[e][1,2]oxaborinine-8-carboxylic acid]
- MIC [1]: 8 to 16 µg/mL (≈ 12.2 to 24.5 µM)
- MIC [2]: > 128 µg/mL
- MIC [3]: 32 to 64 µg/mL (≈ 49 to 98 µM)
- MIC [4]: > 128 µg/mL
- MIC [5]: > 128 µg/mL
- MIC [6]: 2 to 4 µg/mL (≈ 3.06 to 6.12 µM)
- MIC [7]: > 128 µg/mL
- P. aeruginosa PBP3 Potency [8]: D (D represents a potency <10 μM)

SMILES: NCCCN1CCN(C(=O)NC(C(=O)N[C@H]2Cc3ccc(F)c(C(=O)O)c3OB2O)c2c(F)cc(O)cc2F)C(=O)C1=O (stereo partly drawn) [Example 178, (3R)-3-(2-(4-(3-aminopropyl)-2,3-dioxopiperazine-1-carboxamido)-2-(2,6-difluoro-4-hydroxyphenyl)acetamido)-7-fluoro-2-hydroxy-3,4-dihydro-2H-benzo[e][1,2]oxaborinine-8-carboxylic acid]
- MIC [1]: 8 to 16 µg/mL (≈ 13.2 to 26.3 µM)
- MIC [2]: 32 to 64 µg/mL (≈ 52.7 to 105 µM)
- MIC [3]: 8 to 16 µg/mL (≈ 13.2 to 26.3 µM)
- MIC [4]: > 128 µg/mL
- MIC [5]: 8 to 16 µg/mL (≈ 13.2 to 26.3 µM)
- MIC [6]: 0.5 to 1 µg/mL (≈ 0.823 to 1.65 µM)
- MIC [7]: 32 to 64 µg/mL (≈ 52.7 to 105 µM)
- P. aeruginosa PBP3 Potency [8]: D (D represents a potency <10 μM)
